Assay: gradient 5% acetonitrile 3 min, to 50% in 2 min, to 85% in 15 min, held 3 min, 100 µL/min
Settings: column: Zorbax Extend-C18 2.1 x 50 mm; eluents: water / acetonitrile, 0.1% formic acid
Method in brief: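 Over 3 months, pure standards in mixtures of ~100 molecules were run by HPLC coupled to a quadrupole time-of-flight mass spectrometer in positive and negative ionization mode. The column was a Zorbax Extend-C18 (2.1 × 50 mm, 1.8 μm) at 100 μL/min, eluted with water and acetonitrile each holding 0.1% formic acid, with 40 μL dead and 900 μL dwell volumes. Retention time was determined from adduct peaks chosen by software and checked manually.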

Row | RP-LC retention time | Compound
1 | 889 s | CS(=O)(=O)N1CCN=C1SCc1ccc(Cl)c(Cl)c1
2 | 761 s | O=C(c1ccc(OC(F)(F)F)cc1)N1C[C@@H]2C[C@H]1C[C@@H]2NS(=O)(=O)c1cccnc1
3 | 867 s | O=C(Cn1ccn2nc(-c3ccccc3)c(CO)c2c1=O)Nc1cc(Cl)cc(Cl)c1
4 | 932 s | CC(C)n1c(=O)sc2cc(S(=O)(=O)N3CCC(C(=O)NCc4ccccc4)CC3)ccc21
5 | 966 s | COc1ccc(-c2noc(Cc3nnc(-c4ccc(Cl)cc4)o3)n2)cc1OC
6 | 761 s | O=C(c1cocn1)N1CC(F)(F)C[C@H]1c1nnc(-c2ccccc2)o1
7 | 649 s | CN1CCCCCCN(C(=O)c2cnccn2)[C@H]2CCC[C@H]2C1=O
8 | 566 s | Cn1ncc2c(N3CCSCC3)nc(C(=O)NCc3ccncc3)nc21
9 | 696 s | COCCCNC(=O)c1nc(Nc2ccc(F)cc2)c2ccccc2n1
10 | 631 s | CCc1cc(=O)n(CC(=O)NCc2ccc(OC)cc2)c(N)n1
11 | 878 s | CCn1ccc2oc(C)c(C(=O)NCc3cc(C)ccc3C)c2c1=O
12 | 705 s | O=C(NCc1cccc(F)c1)C1CC(=O)N(c2n[nH]c3cccc(F)c23)C1 (configuration not stated)
13 | 627 s | CN(C)C(=O)CSc1ncnc2sccc12
14 | 1050 s | Cc1ccc(-c2ncc(C(=O)NCCC3=CCCCC3)c(-c3ccncc3)n2)cc1
15 | 1100 s | COC(=O)C1=CN(C)c2cc(N3CCC(Cc4ccccc4)CC3)c(F)cc2S1(=O)=O
16 | 659 s | Cc1cc(F)ccc1NC(=O)Cc1nnc(-c2cnccn2)o1
17 | 596 s | CCCN1CCN(C(=O)c2sc3ncn(CC(=O)N4CCCCC4C)c(=O)c3c2C)CC1 (configuration not stated)
18 | 932 s | CCc1nnc(-c2ccc3ccn(CC(=O)Nc4cc(C)ccc4OC)c3c2)o1
19 | 1020 s | Cc1cc(S(=O)(=O)N2C[C@@H](F)C[C@H]2C(=O)N2CCc3ccccc3C2)ccc1Cl
20 | 658 s | OCC1O[C@H](O)C(Cl)C(O)C1O (some centres not stated)
21 | 1310 s | Cc1ccc(-c2csc(NC(=O)Cc3csc(COc4ccc(Cl)c(C)c4)n3)n2)cc1
22 | 719 s | CC(C)N1CCn2c(nc3cc(C(=O)NCc4ccccc4Cl)ccc32)C1=O
23 | 698 s | COCCNc1c(-c2ccc(OC)cc2)nc2sc(C(=O)N(C)C)c(C)n12

Row | RP-LC retention time | Compound
24 | 681 s | Cc1cc(C(=O)N2CCC3(CCC3OCC(N)=O)CC2)c(C)o1 (configuration not stated)
25 | 772 s | Cn1cc(S(=O)(=O)N2CCC(C(=O)NCc3ccc(Cl)cc3)CC2)cc1C(=O)N1CCCC1
26 | 904 s | CCCN(CC1CCOC1)S(=O)(=O)c1ccccc1C (configuration not stated)
27 | 1040 s | CCOc1cc(-c2nc(C3CC(=O)N(c4ccc(OC)cc4)C3)no2)cc(OCC)c1OCC (configuration not stated)
28 | 564 s | c1cncc(-c2nc(CC3CCCNC3)no2)c1 (configuration not stated)
29 | 621 s | CC(C)NC(=O)C1CC(=O)N(c2n[nH]c3cccc(F)c23)C1 (configuration not stated)
30 | 810 s | COc1cccc(-c2csc(Nc3cc(C)ccn3)n2)c1
31 | 1070 s | Cc1c(Cc2ccc3c(c2)OCO3)sc(NC(=O)c2ccc([N+](=O)[O-])s2)c1C#N
32 | 834 s | COc1ccc(NC(=O)N2CCCC2c2nc(-c3ccccc3OC)no2)cc1F (configuration not stated)
33 | 1110 s | COc1ccccc1NS(=O)(=O)c1cc(-c2cc(C(F)(F)F)on2)sc1C
34 | 802 s | Cc1cc(NC(=O)C(=O)NCC2(c3cccs3)CC2)no1
35 | 848 s | O=C(C1=CN(c2ccccc2F)c2cc(F)ccc2S1(=O)=O)N1CCCCC1
36 | 1100 s | O=S(=O)(c1ccccc1Cl)N1CCc2nc(-c3ccc(F)cc3)ncc2C1
37 | 710 s | CN1CCCc2cc(C(CNC(=O)C(=O)NCc3ccccc3)N3CCCC3)ccc21 (configuration not stated)
38 | 1000 s | COc1cccc(-c2cc3c(=O)n(Cc4nc(-c5ccccc5)no4)ccn3n2)c1
39 | 953 s | O=C(Cc1csc(SCc2cccc(Cl)c2)n1)Nc1ccc2c(c1)OCCO2
40 | 700 s | O=C(c1csc(C(=O)N2CCCC2)n1)N1CCSCC1
41 | 801 s | Cc1nc2ccn(Cc3cccs3)c(=O)c2cc1C(=O)NC1CCCCC1
42 | 688 s | COc1ccc(NC(=O)CCC2CCN(c3cc(NC4CC4)ncn3)CC2)c(OC)c1
43 | 926 s | CC(C)n1nc(CNC(=O)c2ccc(Br)o2)c2ccccc21
44 | 576 s | CCCCC(=O)Nc1ccc(N(C)CCc2c(C)nn(C)c2C)c(C(=O)O)c1
45 | 846 s | Cc1ccccc1NC(=O)Cn1nc2c(Oc3cccc(F)c3)nccn2c1=O
46 | 837 s | O=C(NC1CC1)c1ccc(OCC2CCN(C(=O)c3c(F)cccc3Cl)CC2)cc1

Row | RP-LC retention time | Compound
47 | 947 s | COc1ccc(-n2c(=O)c(C(=O)NCC3CCCO3)c(O)c3cccnc32)cc1 (configuration not stated)
48 | 782 s | Cc1ccc(NC(=O)Cn2ncc3c(c2=O)N(CC2CC2)C(=O)CS3)c(C)c1
49 | 699 s | CCNC(=O)C1CCCN(S(=O)(=O)c2c[nH]c(C(=O)N3CCCCCC3)c2)C1 (configuration not stated)
50 | 617 s | Cn1cc(CCN2CCC(C(=O)N3CCN(c4ccccc4)CC3)CC2)c2cccnc21
51 | 846 s | O=C(NCC1CCCCC1)c1cccc(CN2C(=O)C3CCCN3C(=O)c3ccccc32)c1 (configuration not stated)
52 | 709 s | CCC(NC(=O)Cc1cn(C)c2ncccc12)c1cccs1 (configuration not stated)
53 | 657 s | Cc1ccc(C(=O)N2CCc3[nH]nc(C(=O)N(C)C)c3C2)cc1C
54 | 976 s | Cc1cc(OCC(=O)Nc2ccc(C#N)cc2)nc(-c2ccc(F)cc2)n1
55 | 961 s | CCOC(=O)C1CCN(C(=O)c2nnc(-c3ccc(S(=O)(=O)N4CCCCC4)cc3)o2)CC1
56 | 546 s | Cc1ccnc(NS(=O)(=O)c2ccc(NC(=O)CN3C(=O)CCC3=O)cc2)n1
57 | 868 s | COc1cc(-c2nc3ncccn3c2NC2CCC(C)CC2)ccc1OC(C)C (configuration not stated)
58 | 1220 s | Cc1nn(-c2nc(-c3ccccc3)cs2)c(C)c1CC(=O)Nc1ccccc1Cl
59 | 670 s | CC(=O)NCC(=O)NCc1nn(CC(C)C)c2ccccc12
60 | 906 s | COc1cccc(OCC2c3ccsc3CCN2C(=O)CN(CC2CCCO2)C(=O)C(C)C)c1 (configuration not stated)
61 | 696 s | CCc1c(C2CCN(C(=O)c3ccc4c(c3)OCO4)CC2)noc1N
62 | 734 s | Cc1cc(NC(=O)C(=O)NCC(O)c2cccc3ccccc23)no1 (configuration not stated)
63 | 801 s | CCc1noc(-c2ccnc(-n3cnc(C(=O)NCC4CC4)c3)c2)n1
64 | 959 s | COc1ccccc1N1CCN(c2cc(SCC(=O)NCCCc3ccccc3)ncn2)CC1
65 | 894 s | Cc1ccc(NC(=O)C(=O)c2ccc[nH]2)cc1
66 | 655 s | Cc1c2cnn(CC(=O)NCCN(C)C)c(=O)c2c(C)n1Cc1ccccc1Cl
67 | 947 s | O=C(NCCc1cccs1)C1CCCN(c2nccn3nc(-c4ccccc4Cl)cc23)C1 (configuration not stated)

Source: the METLIN SMRT retention time set (Domingo-Almenara et al. 2019)
